Earlier results in patent publication US9636304B2, “Pharmaceutical composition comprising citrate and bicarbonate salts, and use thereof for treating cystinuria” (ADVICENNE, priority 2010, dated 2017).

Conditions: prior art, oral

For `O=C([O-])CC(O)(CC(=O)[O-])C(=O)[O-].[K+].[K+].[K+]` [potassium citrate], the gastric tolerance is listed as “mediocre”.
